The text below walks through data of patent US8703824B2, “Cationic amphiphiles with mannose-mimicking head-groups and a process for the preparation thereof” (Council of Scientific & Industrial Research, priority 2010, dated 2014).

In assay [1] the test system is RAW 264.7 cells. Nature of the assay: Mannose receptor specific transfection of RAW 264.7 cells in presence and absence of mannan. Particulars: DOPE as co-lipid; lipid:DNA ratio 8:1 to 1:1; 50 μg mannan; FIGS. 6-8. The class given is cell-based, murine. As to the method:
(§1) Cells were seeded at a density of 25000 (for RAW 264.7) per well in a 96-well plate for 18-24 h before the transfection. 0.3 μg (0.9 nmol) of plasmid DNA was complexed with varying amounts of lipids (1 nmol-8 nmol) in serum free medium (total volume made up to 100 μL) for 30 minutes. The charge ratios were varied from 1:1 to 8:1 over these ranges of the lipids. Immediately prior to transfection, cells plated in the 96-well plate were washed with PBS (2×100 μL) followed by the addition of lipoplexes. After 4 h of incubation, the medium was replaced with fresh complete medium containing 10% FBS. The luciferase reporter gene activity was estimated after 24 h. The cells were washed twice with PBS (100 pt each) and lysed in 50 μL lysis buffer. Care was taken to ensure complete lysis. 10 μL Promega luciferase assay buffer was added to the 5 μL lysate in a polystyrene plate and the luciferase activity per well was estimated using a FLx800 microplate luminescence reader (Bio-Tek instruments, INC, UK). Protein concentration in each well was determined by the modified Lowry method (Lundqvist A, et al. J Immunother. 2002, 25, 445-454) and the luciferase activity was expressed as the relative light unit (RLU) per mg of the protein.
(§2) Each transfection experiment was repeated two times on two different days. The transfection values reported were average values from two replicate transfection plates assayed on the same day. When mannan was used, the cells were pretreated for 30 mins at 37° C., 5% CO2 with mannan (50 μg), and the transfection was carried out in its presence. After 4 h at 37° C., the medium was replaced with fresh complete medium without mannan and the transfection activity was evaluated after 24 h as described above.

The subject of assay [2] is RAW 264.7 cells. The assay is described as follows: Reporter gene (luciferase) expression assay, lipoplex transfection of RAW 264.7 cells. Format: cell-based, murine. Particulars: for in vitro transfection efficiencies relative to control mannosylated lipid 3: DOPE as co-lipid, lipid:DNA charge ratios 2:1 to 8:1, FIG. 4; for transfection efficiencies with DOPC as co-lipid compared to DOPE as co-lipid: lipid:DNA charge ratio of 8:1, FIG. 5. The protocol: The liposomes were prepared by the conventional method. Briefly, cationic lipids and co-lipids (Cholesterol, DOPE, DOPC) at 2:1 molar ratios were dissolved in chloroform. The solvent was then evaporated under a thin stream of nitrogen gas, vacuum dried for 8 h and hydrated in deionised water overnight to give a final lipid concentration of 1 mM for in vitro experiments or 5 mM for in vivo experiments. The hydrated lipid film was first vortexed for 30 seconds and then sonicated until clarity using a Branson 450 sonifier at 100% duty cycle and 25 W output power. The resulting clear aqueous liposomes were used in preparing lipoplexes.
as §1, §2
For orientation: A reporter such as luciferase makes a cellular process visible.

For assay [3], the system named is mouse bone marrow derived dendritic cells. The assay is described as follows: DC-transfection with pα5GFP lipoplexes, flow cytometric analysis of GFP expression. The class given is cell-based, C57BL/6J mice. The settings on record: mbmDCs; for efficacies in delivering genes to dendritic cells relative to mannosyl analog 3: flow cytometry (FIG. 11) and fluorescence microscopy (FIG. 12). As to the method: Primary mbmDCs were isolated using a previously described procedure (Inaba K, et al. J Exp Med 1992; 176:1693-1702). Briefly, bone marrow collected from tibias and fibulas of male C57BL/6 mice was passed through a nylon mesh to remove bone and debris, and resuspended in complete DC medium (RPMI-1640 containing 10% FBS, 50 μM β-mercaptoethanol, 2 mM glutamine, 1% NEAA, 20 ng/mL GM-CSF and 10 ng/mL IL-4, 1% antibiotic solution). Cells were supplemented with fresh DC medium every two days. After 6 days, the aggregated cells were dislodged by gently pipetting RPMI over the adherent stroma. The dislodged cells were pulled together and centrifuged at 280 g for […] at room temperature. The supernatant was discarded. The pellets were first resuspended in complete DC medium at 1×10^6 cells/mL and finally placed in 100 mm cell culture petri dishes at 1×10^7 cells/dish in 10 mL medium per dish. After 24 h, the nonadherent cells were collected by gently swirling the dish and were used for transfection and flow cytometry experiments. Cultures were maintained in a humidified atmosphere with 5% CO2 at 37° C.
First, the transfection efficiency of the lipids 1, 2 & 3 were evaluated in mouse bone marrow derived dendritic cells. To this end, the immature dendritic cells were isolated from the bone marrow of C57BL/6J mice by culturing with GM-CSF and IL-4 following the protocol described above. […] The profiles of the DC markers were monitored by flow cytometry. […] After confirming the presence of these expected DC markers on the surface of the isolated DCs, the transfection efficiencies of the cationic amphiphiles 1, 2 & 3 were evaluated in mbmDCs. […] Lipoplexes containing 3 μg of plasmid DNA encoding green fluorescence protein (pα5GFP) and 8 nmol cationic amphiphiles 1, 2 & 3 were added to the cells and incubated for 4 h at 37° C. in serum free medium with 5% CO2. […] The transfection efficiencies of the cationic amphiphiles 1, 2 & 3 were measured by Flow cytometric analysis.
(In flow cytometry, cells or beads pass a laser one at a time.)

Assay [4] can be described thus: Dendritic cell based genetic immunization (s.c. pre-transfected mbmDCs), anti β-gal antibody ELISA. Format: in vivo, C57BL/6J mice. The settings on record: s.c. 5×10^5 pre-transfected mbmDCs twice with 7-day interval; sera two weeks after second immunization; Part A, FIG. 13. The protocol:
The transfected mbmDCs were harvested by DC isolation protocol described above and washed with PBS (2×100 μL). The cells were resuspended in HBSS medium at 5×10^5 cells/100 μL. 6-8 weeks old female C57BL/6J mice (n=5, each weighing 20-22 g) were immunized (s.c.) with 100 μL of transfected mbmDCs (˜5×10^5 cells) twice with a 7-day interval. Two weeks after the second immunization, mice were sacrificed and sera & spleens were collected for immune response assays.
Anti-β-gal antibodies were measured using an enzyme linked immunosorbent (ELISA) assay as described earlier (McKeever, U. et al. Vaccine 2002; 20:1524-1531). Briefly, 96 well ELISA plates were coated with β-gal protein (0.3 μg per well) using a 5 μg/mL stock solution prepared in PBS. Plates were washed with PBS (3×200 μL) and blocked with 1% BSA in PBS at room temperature for 2 h. The plates were then washed with PBS containing 0.05% Tween-20 (3×200 μL) and incubated with mouse sera (100 μL) at room temperature for 2 h. The plates were again washed with PBS containing 0.05% Tween-20 (3×200 μL) and 100 μL of diluted (1:1000) anti-mouse antibody conjugated to horse radish peroxidase was added to each well. […] The plates were then incubated in dark with 100 μL of ABTS (Calbiochem, USA) per well at 25° C. for 10 min and the absorbance was measured at 405 nm by ELISA reader (Bio-Tek instruments Inc, UK).
(In general: ELISA stands for enzyme-linked immunosorbent assay.)

In another assay the test system is NIH3T3 cells. The assay is described as follows: Transfection of NIH3T3 cells (no mannose receptor) in presence and absence of mannan. Format: cell-based, murine. The settings on record: DOPE as co-lipid, lipid:DNA ratio 8:1 to 1:1, 50 μg mannan, FIGS. 6-8. The protocol:
as §1, §2

On to “2-[(N,N-di-n-hexadecyl-N-methyl)amino]-ethylL-L-lysyl-quinate chloride [lipid 2]”, for which the “transfection efficiencies when cells were pretreated with mannan” value (“transfection efficiencies … with mannan” below) with RAW 264.7 cells [1] is reported as “significantly diminished”. In addition, in the assay on RAW 264.7 cells [2], the “in vitro transfection efficiencies relative to control mannosylated lipid 3” value is “higher in vitro transfection efficiencies than their control mannosylated lipid 3” and the “transfection efficiencies with DOPC as co-lipid compared to DOPE as co-lipid” value was “enhanced further”. For the same substance, the “efficacies in delivering genes to dendritic cells relative to mannosyl analog 3” value in assay [3] is listed as “superior to those of their mannosyl analog 3”. The “anti β-gal antibody responses relative to mannosyl analog 3” value in assay [4] is “higher anti β-gal antibody responses”. The “transfection efficiency when cells were pretreated with mannan” value (“transfection efficiency … with mannan” for short) in the assay with NIH3T3 cells was “did not get affected”.

Consider “2-[(N,N-di-n-hexadecyl-N-methyl)amino]-ethylL-L-lysyl-shikimate chloride [lipid 1]”, for which the “transfection efficiencies … with mannan” value with RAW 264.7 cells [1] is recorded as “significantly diminished”. Also, in the assay on RAW 264.7 cells [2], the “in vitro transfection efficiencies relative to control mannosylated lipid 3” value is “higher in vitro transfection efficiencies than their control mannosylated lipid 3” and the “transfection efficiencies with DOPC as co-lipid compared to DOPE as co-lipid” value is reported as “enhanced further”. The “efficacies in delivering genes to dendritic cells relative to mannosyl analog 3” value in assay [3] was “superior to those of their mannosyl analog 3”. The “anti β-gal antibody responses relative to mannosyl analog 3” value in assay [4] is recorded as “higher anti β-gal antibody responses”. Besides, in the assay with NIH3T3 cells, the “transfection efficiency … with mannan” value was “did not get affected”.

For the substance “2-[(N,N-di-n-hexadecyl-N-methyl)amino]-ethylL-L-lysyl-β-D-Mannoside chloride [lipid 3, reference compound]”, the “transfection efficiencies … with mannan” value in the assay with RAW 264.7 cells [1] was “significantly diminished”. For the same substance, in the assay with RAW 264.7 cells [2], the “transfection efficiencies with DOPC as co-lipid compared to DOPE as co-lipid” value is “enhanced further”. In addition, the “DC transfection efficiency (GFP expression by FACS)” value in assay [3] (3 μg pα5GFP plasmid, 8 nmol cationic amphiphile, FIG. 11) is on record as 5%. For the same substance, the “transfection efficiency … with mannan” value in the assay on NIH3T3 cells was “did not get affected”.
